The record followed here is patent publication US20250101436A1, “APTAMERS AND SMALL MOLECULE LIGANDS” (MeiraGTx UK II Limited, priority 2021, published 2025).

Molecules are shown by their SMILES.

The first assay relates to N5-12G6 riboswitch. In words: Firefly luciferase assay, N5-12G6 riboswitch in HEK293 cells. As to conditions: Homo sapiens, HEK293, read-out: Fold induction 2 μM (HEK), 12G6 riboswitch, luciferase, HEK293, 2 μM.
For `Cc1cncc(NCc2ccc3nccnc3c2)c1O[C@@H]1CCNC1` [compound 111, (R)-5-methyl-4-(pyrrolidin-3-yloxy)-N-(quinoxalin-6-ylmethyl)pyridin-3-amine], the fold induction at 2 µM came out at 74.

Consider `Brc1cncc(NCc2ccc3nccnc3c2)c1OC1CNC1` [compound 112, 4-(azetidin-3-yloxy)-5-bromo-N-(quinoxalin-6-ylmethyl)pyridin-3-amine], for which the fold induction at 2 µM was 40.9. On the same count and under the same terms, for `Cc1cncc(NCc2ccc3nccnc3c2)c1OC1CNC1` [compound 113, 4-(azetidin-3-yloxy)-5-methyl-N-(quinoxalin-6-ylmethyl)pyridin-3-amine] the value was 31.9; for `c1cnc2cc(CNc3cnc4[nH]ccc4c3N3CCNCC3)ccc2n1` [compound 114, 4-(piperazin-1-yl)-N-(quinoxalin-6-ylmethyl)-1H-pyrrolo[2,3-b]pyridin-5-amine], 60.1; for `c1ccc2c(N3CCNCC3)c(NCc3ccc4nccnc4c3)cnc2c1` [compound 115, 4-(piperazin-1-yl)-N-(quinoxalin-6-ylmethyl)quinolin-3-amine], 79. As to `COc1cc(N2CCNCC2)c(NCc2ccc3nccnc3c2)cn1` [compound 116, 6-methoxy-4-(piperazin-1-yl)-N-(quinoxalin-6-ylmethyl)pyridin-3-amine], the fold induction at 2 µM is 50.

For `FC(F)(F)c1cc(N2CCNCC2)c(NCc2ccc3nccnc3c2)cn1` [compound 117, 4-(piperazin-1-yl)-N-(quinoxalin-6-ylmethyl)-6-(trifluoromethyl)pyridin-3-amine], the fold induction at 2 µM was 30.6. For the molecule `Cc1cc(N2CCNCC2)c(NCc2ccc3nccnc3c2)cn1` [compound 118, 6-methyl-4-(piperazin-1-yl)-N-(quinoxalin-6-ylmethyl)pyridin-3-amine], the fold induction at 2 µM worked out at 26.2. Same read-out and setting: for `Fc1cc(CNc2cncc(Cl)c2O[C@@H]2CCNC2)cc2nccnc12` [compound 119, (R)-5-chloro-N-((8-fluoroquinoxalin-6-yl)methyl)-4-(pyrrolidin-3-yloxy)pyridin-3-amine] the value was 32.5; for `Fc1cc2nccnc2cc1CNc1cncc(Cl)c1O[C@@H]1CCNC1` [compound 120, (R)-5-chloro-N-((7-fluoroquinoxalin-6-yl)methyl)-4-(pyrrolidin-3-yloxy)pyridin-3-amine], 24.7.

Turning to `Clc1cc2nccnc2cc1CNc1cncc(Cl)c1O[C@@H]1CCNC1` [compound 121, (R)-5-chloro-N-((7-chloroquinoxalin-6-yl)methyl)-4-(pyrrolidin-3-yloxy)pyridin-3-amine], the fold induction at 2 µM was 28.2.

With `Cc1cc(CNc2cnccc2O[C@@H]2CCNC2)cc2nccnc12` [compound 122, (R)—N-((8-methylquinoxalin-6-yl)methyl)-4-(pyrrolidin-3-yloxy)pyridin-3-amine], the fold induction at 2 µM is 35.8. As to `Cc1cc2nccnc2cc1CNc1cnccc1O[C@@H]1CCNC1` [compound 123, (R)—N-((7-methylquinoxalin-6-yl)methyl)-4-(pyrrolidin-3-yloxy)pyridin-3-amine], the fold induction at 2 µM was found to be 83.9. As to `FC(F)(F)c1cc(CNc2cnccc2O[C@@H]2CCNC2)cc2nccnc12` [compound 124, (R)-4-(pyrrolidin-3-yloxy)-N-((8-(trifluoromethyl)quinoxalin-6-yl)methyl)pyridin-3-amine], the fold induction at 2 µM was 3.

Another assay concerns 12C6-1 riboswitch. Kind of assay: Firefly luciferase assay, Luci-12C6-1 riboswitch construct in transfected HEK 293 cells. Conditions: HEK 293 cells. Format: cell-based, human. The source says: Riboswitch construct: Aptamers were synthesized by Integrated DNA Technologies, Inc. The synthesized aptamer sequence, here referred to as aptamer sequence 12C6-1, contains a putative TPP aptamer sequence (AP008955.1/944373-944459; CP030117.1/954080-954166; CP023474.1/977011-977097) with C at 5′ end and a complementary G at 3′ end flanking the putative TPP aptamer sequence: […] […] (SEQ ID NO: 1). Golden Gate cloning strategy (New England Biolabs, NEB) was used to clone the synthesized aptamer sequences into an intron-exon-intron cassette to replace the guanine aptamer in the G17 riboswitch cassette (see SEQ ID NO: 15 recited in WO 2016/126747, which is incorporated herein in its entirety) to generate riboswitch construct Luci-12C6-1.
For `O=C(O)CCC(=O)Nc1ccc2nccnc2c1` [compound 003], the “activation of 12C6-1 and derivative riboswitches in regulating Luciferase expression (FIG. 4d)” value (shortened to “activation”) was “bind 12C6-1 and activate derivative riboswitches”.

Regarding `O=C(CNc1cnccc1N1CCNCC1)Nc1ccc2nccnc2c1` [compound 005], the “activation” value was “bind 12C6-1 and activate derivative riboswitches”. `Cl.c1cc(N2CCNCC2)c(CNCc2ccc3nccnc3c2)cn1` [compound 008]: the “activation” value was “bind 12C6-1 and activate derivative riboswitches”.

`C=CN(CCN(C)C)Cc1ccc2nccnc2c1` [compound 009]: the “activation” value was “bind 12C6-1 and activate derivative riboswitches”. For `CN(C)CCNCc1ccc2nccnc2c1` [compound 011], the “activation” value is “bind 12C6-1 and activate derivative riboswitches”.

The same assay, now with this note: HEK 293 cells transfected with Luci-12C6-1.
On to `CC(=C(CCO)SSCC1CCCO1)N(C=O)Cc1cnc(C)nc1N` (stereo in doubt) [fursultiamine, reference compound], for which the luciferase expression response result was “induced luciferase gene expression in a dose-dependent manner”. Take `Cc1ncc(C[n+]2csc(CCO[P@](=O)(O)OP(=O)(O)O)c2C)c(N)n1` [TPP, Thiamine Pyrophosphate, reference compound]: the luciferase expression response entry is recorded as “dose-dependent response”.
